Results as given in US12410141B2, “Anti-cancer spirocyclic-guanidine compounds and uses thereof” (The Johns Hopkins University, priority 2020, dated 2025).

Legend:
[1] = system: high molecular weight polyubiquitinated proteins in OVCAR3 cells; assay: Western blot for polyubiquitinated proteins, OVCAR3 cells; format: cell-based; details: RA475 0.5 μM and 1 μM
Description: Cell lysate (10-20 μg total protein) prepared in MPER (Pierce) from each sample was subjected to SDS-PAGE, transferred to PVDF membranes and analyzed by Western blot using antibodies specific for ubiquitin (P4D1, sc-8017, Santa Cruz), or after stripping antibody for actin (#66009, Protein Tech Group), at the dilutions recommended by the manufacturers, and for secondary antibodies either peroxidase-linked anti-mouse IgG or anti-rabbit IgG (GE Healthcare UK Ltd) were utilized at the recommended dilution. The blots were developed using HyGLO chemiluminescent detection reagent (Denville).
Proteasome inhibitors cause a rapid accumulation of polyUb proteins that is associated with unresolved UPR stress and the induction of apoptosis. Since RA475 is cytotoxic to ovarian cancer cells (Table 1), and induces such a rapid accumulation of polyUb proteins (FIG. 5), it was examined whether RA475 also triggered apoptosis. SKOV3 cells (FIG. 5A) were treated with Up284 (0.5 μM and 1 μM), 1 μM RA190, RA475 (0.5 μM and 1 μM) or vehicle alone (DMSO) and then cultured for 12 hr. OVCAR3 cells (FIG. 5B) were treated with Up284 (0.5 μM), Bortezomib (Bz, 0.25 μM), Ixazomib (Iz, 0.25 μM), RA475 (0.5 μM and 1 μM) or vehicle alone (DMSO). The attached cells were harvested and their lysates were subjected to Western blot analysis, first probed with antibody to ubiquitin and then to actin.

PACS = assay: MTT cytotoxicity assay, PACS; format: cell-based; details: ovarian (mouse), 72 hr, read-out: IC50, cell killing
Description: (§1) All cell lines were obtained from the American Type Culture Collection (ATCC) and cultured in the specified medium supplemented with 10% fetal bovine serum, 100 IU/mL penicillin, and 100 μg/mL streptomycin at 37° C. in a humidified 5% CO2/95% air incubator. To assess drug cytotoxicity cells were seeded at 2,500 cells/well (10,000 cells/well for MM lines and primary cells) in 100 μL medium in 96-well plate. […]
(§2) It was examined whether the RPN13 inhibitor, RA475, was cytotoxic for cancer cell lines using the MTT assay.

PEO23 = assay: MTT cytotoxicity assay, PEO23; format: cell-based; details: PEO23, ovarian, 72 hr, read-out: IC50, cell killing
Description: as §1, §2

U251MG = assay: MTT cytotoxicity assay, U251MG; format: cell-based; details: glioblastoma multiforme, 72 hr, read-out: IC50, cell killing
Description: as §1, §2

ES2 = assay: MTT cytotoxicity assay, ES2; format: cell-based; details: ES2, ovarian, 72 hr, read-out: IC50, cell killing
Description: as §1, §2

HCT116 = assay: MTT cytotoxicity assay, HCT116; format: cell-based; details: HCT116, colon, 72 hr, read-out: IC50, cell killing
Description: as §1, §2

OVCAR3 = assay: Flow cytometry analysis of cell death, OVCAR3; format: cell-based; details: 1 μM or 2 μM, 16 hr
Description: 10^5 cells were re-suspended in binding buffer, 5 μL of Annexin V-PE (Apoptosis Detection Kit I (BD Pharmingen) and 5 μL of 7-AAD were then added into the cells, which were then incubated at room temperature for 15 minutes and analyzed by flow cytometry on a FACSCalibur using CellQuest software (Becton Dickinson).
Two ovarian cancer cell lines, ES2 and OVCAR3, were treated with 1 μM or 2 μM RA475 and 16 hr later the cells were harvested and stained with 7-AAD and Annexin V. 7-AAD is a DNA dye that can enter dying cells and Annexin V is commonly used to detect apoptotic cells by its ability to bind to phosphatidylserine, an early marker of apoptosis when it is exposed on the outer leaflet of the plasma membrane.

TSH1 = assay: MTT cytotoxicity assay, TSH1; format: cell-based; details: TSH1, thyroid, 72 hr, read-out: IC50, cell killing
Description: as §1, §2

SUM149 = assay: MTT cytotoxicity assay, SUM149; format: cell-based; details: SUM149, breast, 72 hr, read-out: IC50, cell killing
Description: as §1, §2

MCF7 = assay: MTT cytotoxicity assay, MCF7; format: cell-based; details: MCF7, breast, 72 hr, read-out: IC50, cell killing
Description: as §1, §2

[2] = target: T1, 42 kDa cellular protein, consistent with RPN13 (Homo sapiens, UniProt Q16186); assay: Up284B competitive labeling assay in SKOV3 or ES2 cell lysates; format: binding; details: pre-cleared SKOV3 or ES2 lysates, 45 min at 4° C., then 5 μM Up284B
T1 construct: endogenous in cells; host or cells: SKOV3 or ES2 cell lysates, pre-cleared with streptavidin-coated beads
T1 sequence (Q16186 whole entry): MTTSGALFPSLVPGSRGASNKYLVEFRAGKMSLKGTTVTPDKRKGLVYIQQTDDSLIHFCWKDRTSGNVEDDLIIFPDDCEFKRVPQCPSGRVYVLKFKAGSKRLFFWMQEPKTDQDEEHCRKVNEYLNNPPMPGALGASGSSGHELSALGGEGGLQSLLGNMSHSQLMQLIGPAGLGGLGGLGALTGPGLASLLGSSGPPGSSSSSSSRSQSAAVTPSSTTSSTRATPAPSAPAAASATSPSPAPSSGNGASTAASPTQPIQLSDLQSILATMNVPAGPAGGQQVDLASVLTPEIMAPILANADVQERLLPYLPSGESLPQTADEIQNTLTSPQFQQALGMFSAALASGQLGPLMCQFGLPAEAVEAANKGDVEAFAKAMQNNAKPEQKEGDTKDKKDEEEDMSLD
Description: (§3) Clarified cell lysate (40 ug/sample) in MPER buffer was pretreated with streptavidin-coated magnetic beads for 45 min at 4° C. to deplete non-specific biotinylated proteins in the cell lysate. […] Next, the samples were mixed with Laemmli sample buffer (BioRad) and boiled for 5 min. The proteins were separated using a 4-15% Bio-Rad Mini-PROTEAN SDS-PAGE gel (1 hr at 100 V), and transferred to PVDF membrane overnight at 4° C. (24 V). The membrane was blocked with 5% BSA in PBST for 1 hr at RT and washed for 20 minutes (3× with PBST). Then the membrane was probed with HRP-streptavidin (1:10,000 in PBST) for 1 hr at RT, washed for 30 min (3× with PBST), and developed using HyGLO chemiluminescent detection reagent (Denville) for biotin detection.
Briefly SKOV3 or ES2 cell lysates were first pre-cleared with streptavidin-coated beads to deplete endogenous biotinylated proteins. The pre-cleared lysates were then divided into equal aliquots. […] The lysates were then boiled in gel sample buffer, separated by SDS-PAGE, and transferred to a PVDF membrane.

TC1 = assay: MTT cytotoxicity assay, TC1; format: cell-based; details: TC1, cervical, 72 hr, read-out: IC50, cell killing
Description: as §1, §2

42 kDa RPN13 = target: T2, 42 kDa RPN13 (Homo sapiens, UniProt Q16186); assay: RA190B competitive labeling assay in ES2 cell lysate; format: binding; details: ES2 cell lysate pre-incubated 45 min at 4° C. (bortezomib or Up compounds 5 μM), then RA190B 20 μM
T2 construct: endogenous in cells; host or cells: ES2 cell lysate (clarified, in MPER buffer)
T2 sequence (Q16186 whole entry): as above
Description: as §3
ES2 cell lysates were incubated with 20 μM RA190B for 45 min at 4° C., and then separated by SDS-PAGE, transferred to a PVDF membrane.

With `Cl.Cl.N#Cc1ccc(/C=C2/C(=O)/C(=C/c3ccc(C#N)cc3)C23CCN(C(=N)N)CC3)cc1` [RA475] the “accumulation of high molecular weight polyubiquitinated proteins” value [1] was “triggers the accumulation”, the IC50 (PACS) was 581 nM and the IC50 (PEO23) was 350 nM. For the same compound, the IC50 (U251MG) was 600 nM, the IC50 (ES2) was 160 nM and the IC50 (HCT116) was 430 nM. The “7-AAD and Annexin V double positive cells” value (OVCAR3) was “dose-dependent induction”, the IC50 (TSH1) was 114 nM and the IC50 (SUM149) was 100 nM. For the same compound, the IC50 (MCF7) was 742 nM, the “competition with binding of Up284B probe to RPN13” value [2] was “dose-dependently competed” and the IC50 (TC1) was 217 nM.
In the case of `N#Cc1ccc(/C=C2/C(=O)/C(=C/c3ccc(C#N)cc3)C23CCNCC3)cc1` [Up284, reference compound], the “competition with binding of RA190B to the 42 kDa RPN13” value (42 kDa RPN13) is reported as “competed”.
